This note sets out measurements from ChEMBL document CHEMBL1125663, “Function of negative charge in the "address domain" of deltorphins” (J Med Chem, 1991).

Square brackets hold non-standard residues; d marks the D form. Peptide text beside a SMILES is read from it.

Type in all cases: cell membranes
In experiment [1] the target is T1, Delta-type opioid receptor (Rattus norvegicus, UniProt P33533). The experiment can be described thus: Binding affinity against Opioid receptor delta 1 in P2 membrane preparation of rat brain by [3H]DADLE displacement.
The target in experiment [2] is T2, Mu-type opioid receptor (Rattus norvegicus, UniProt P33535). The experiment can be described thus: Binding affinity against Opioid receptor mu 1 in P2 membrane preparation of rat brain by [3H]DAGO displacement.
In experiment [3] the target is T2, Mu-type opioid receptor. The experiment can be described thus: Inhibition of [3H]DAGO binding to trat brain opioid receptor mu in P2 membrane.
In experiment [4] the target is T1, Delta-type opioid receptor. The experiment can be described thus: Inhibition of [3H]-DADLE binding to opioid receptor delta in P2 membrane preparation of rat brain.

T2 sequence (P33535 whole entry): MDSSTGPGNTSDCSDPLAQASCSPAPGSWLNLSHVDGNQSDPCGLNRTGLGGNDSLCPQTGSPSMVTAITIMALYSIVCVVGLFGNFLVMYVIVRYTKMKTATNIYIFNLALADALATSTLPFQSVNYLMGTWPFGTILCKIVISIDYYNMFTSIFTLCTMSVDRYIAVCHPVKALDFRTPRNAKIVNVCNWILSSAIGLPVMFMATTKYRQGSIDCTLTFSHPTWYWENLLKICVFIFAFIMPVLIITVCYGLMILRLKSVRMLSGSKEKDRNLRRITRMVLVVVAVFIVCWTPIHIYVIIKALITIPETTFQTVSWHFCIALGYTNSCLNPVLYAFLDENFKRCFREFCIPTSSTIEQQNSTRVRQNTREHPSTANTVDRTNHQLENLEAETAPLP
T1 sequence (P33533 whole entry): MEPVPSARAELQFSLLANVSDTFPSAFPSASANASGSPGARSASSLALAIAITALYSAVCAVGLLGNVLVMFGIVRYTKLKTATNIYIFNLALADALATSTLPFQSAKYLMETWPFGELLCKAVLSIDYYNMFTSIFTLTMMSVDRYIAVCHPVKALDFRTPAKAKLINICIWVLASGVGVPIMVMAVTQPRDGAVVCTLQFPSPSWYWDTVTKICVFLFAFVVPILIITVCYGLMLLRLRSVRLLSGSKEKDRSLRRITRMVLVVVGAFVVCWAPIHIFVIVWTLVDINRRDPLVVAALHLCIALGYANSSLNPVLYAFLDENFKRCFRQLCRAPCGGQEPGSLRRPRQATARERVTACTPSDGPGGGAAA

As for `CSCC[C@H](NC(=O)[C@H](CC(C)C)NC(=O)[C@H](Cc1cnc[nH]1)NC(=O)[C@H](Cc1ccccc1)NC(=O)[C@@H](CCSC)NC(=O)[C@@H](N)Cc1ccc(O)cc1)C(=O)N[C@@H](CC(=O)O)C(C)=O`, the Ki in experiment [1] was 155 nM; at Mu-type opioid receptor [2] it was 3220 nM.

Consider `CC(C)[C@H](NC(=O)[C@H](CC(=O)O)NC(=O)[C@H](Cc1ccccc1)NC(=O)[C@H](C)NC(=O)[C@@H](N)Cc1ccc(O)cc1)C(=O)N[C@H](C(=O)NCC(=O)O)C(C)C`, for which the Ki was 6.01 nM in experiment [1] and 1640 nM on Mu-type opioid receptor [2].

For `CCCC[C@H](NC(=O)[C@H](CC(C)C)NC(=O)[C@H](Cc1cnc[nH]1)NC(=O)[C@H](Cc1ccccc1)NC(=O)[C@@H](CCSC)NC(=O)[C@@H](N)Cc1ccc(O)cc1)C(=O)N[C@@H](CC(=O)O)C(N)=O`, the Ki came out at 0.22 nM in experiment [1] and 206 nM on Mu-type opioid receptor [2].

As to `CSCC[C@H](NC(=O)[C@H](CC(C)C)NC(=O)[C@H](CC(=O)O)NC(=O)[C@H](Cc1ccccc1)NC(=O)[C@@H](CCSC)NC(=O)[C@@H](N)Cc1ccc(O)cc1)C(=O)N[C@@H](CC(=O)O)C(N)=O`, the figures for the Ki (in experiment [1]; at Mu-type opioid receptor [2]) were 7.71 nM and 10600 nM, respectively.

With `CSCC[C@H](NC(=O)[C@H](CC(C)C)NC(=O)[C@H](Cc1c[nH]cn1)NC(=O)[C@H](Cc1ccccc1)NC(=O)[C@@H](CCSC)NC(=O)[C@@H](N)Cc1ccc(O)cc1)C(=O)N[C@@H](CC(N)=O)C(N)=O`, the Ki in experiment [1] amounted to 0.22 nM; at Mu-type opioid receptor [2], 119 nM.

Take `CSCC[C@H](NC(=O)[C@H](CC(=O)O)NC(=O)[C@H](CC(=O)O)NC(=O)[C@H](Cc1ccccc1)NC(=O)[C@@H](CCSC)NC(=O)[C@@H](N)Cc1ccc(O)cc1)C(=O)N[C@@H](Cc1c[nH]cn1)C(N)=O`: the Ki in experiment [1] was found to be 1900 nM; at Mu-type opioid receptor [2] it was 1570 nM.

As to `CC(C)[C@H](NC(=O)[C@H](CCC(N)=O)NC(=O)[C@H](Cc1ccccc1)NC(=O)[C@@H](C)NC(=O)[C@@H](N)Cc1ccc(O)cc1)C(=O)N[C@H](C(=O)NCC(=O)O)C(C)C`, the Ki amounted to 0.2 nM in experiment [1] and 153 nM at Mu-type opioid receptor [2].

Consider `CSCC[C@@H](NC(=O)[C@@H](N)Cc1ccc(O)cc1)C(=O)N[C@@H](Cc1ccccc1)C(=O)N[C@@H](Cc1cnc[nH]1)C(=O)N[C@@H](CC(C)C)C(=O)N[C@@H](CC(=O)O)C(=O)N[C@@H](CC(=O)O)C(N)=O`, for which the values for the Ki (in experiment [1]; on Mu-type opioid receptor [2]) were 3.08 nM and 3410 nM, respectively.

Turning to `CSCC[C@@H](NC(=O)[C@@H](N)Cc1ccc(O)cc1)C(=O)N[C@@H](Cc1ccccc1)C(=O)N[C@@H](Cc1cnc[nH]1)C(=O)N[C@@H](CC(C)C)C(=O)N[C@@H](CC(=O)O)C(=O)N[C@@H](CC(=O)O)C(=O)O`, the values for the Ki (in experiment [1]; on Mu-type opioid receptor [2]) were 6.01 nM and 2090 nM, respectively.

In the case of `CC(C)[C@H](NC(=O)CNC(=O)[C@H](Cc1ccccc1)NC(=O)[C@H](C)NC(=O)[C@@H](N)Cc1ccc(O)cc1)C(=O)N[C@H](C(=O)N[C@@H](CC(=O)O)C(=O)O)C(C)C` (H-YAFGVVD-OH), the Ki in experiment [1] was 8.79 nM; on Mu-type opioid receptor [2], 57.5 nM.

Take `CC(C)[C@H](NC(=O)[C@H](CC(N)=O)NC(=O)[C@H](Cc1ccccc1)NC(=O)[C@H](C)NC(=O)[C@@H](N)Cc1ccc(O)cc1)C(=O)N[C@H](C(=O)NCC(N)=O)C(C)C` (H-YAFNVVG-NH2): the Ki at Mu-type opioid receptor [3] stood at 176 nM; in experiment [4] it was 0.65 nM.

In the case of `CC(C)[C@H](NC(=O)[C@H](CC(=O)O)NC(=O)[C@@H](NC(=O)[C@H](Cc1ccccc1)NC(=O)[C@H](C)NC(=O)[C@@H](N)Cc1ccc(O)cc1)C(C)C)C(=O)NCC(N)=O` (H-YAFVDVG-NH2), the results for the Ki (in experiment [1]; at Mu-type opioid receptor [2]) were 1.23 nM and 275 nM, respectively.

As to `CC(C)[C@H](NC(=O)[C@H](Cc1ccccc1)NC(=O)[C@H](C)NC(=O)[C@@H](N)Cc1ccc(O)cc1)C(=O)N[C@H](C(=O)N[C@@H](CC(=O)O)C(=O)NCC(N)=O)C(C)C` (H-YAFVVDG-NH2), the Ki was found to be 9.42 nM in experiment [1] and 149 nM on Mu-type opioid receptor [2].

With `CSCC[C@H](NC(=O)[C@H](CC(C)C)NC(=O)[C@H](Cc1c[nH]cn1)NC(=O)[C@H](Cc1ccccc1)NC(=O)[C@@H](CCSC)NC(=O)[C@@H](N)Cc1ccc(O)cc1)C(=O)N[C@@H](CC(=O)O)C(=O)O` (H-Y[dM]FHLMD-OH), the Ki in experiment [1] is 10.8 nM; at Mu-type opioid receptor [2] it was 2690 nM.

`C[C@@H](NC(=O)[C@@H](N)Cc1ccc(O)cc1)C(=O)NCC(=O)N(C)[C@@H](Cc1ccccc1)C(=O)NCCO` [DAMGO] yielded a Ki in experiment [1] of 180 nM.

As to `CSCC[C@H](NC(=O)[C@H](CC(C)C)NC(=O)[C@H](Cc1cnc[nH]1)NC(=O)[C@H](Cc1ccccc1)NC(=O)[C@@H](CCSC)NC(=O)[C@@H](N)Cc1ccc(O)cc1)C(=O)N[C@@H](CC(=O)O)C(N)=O` [DELTORPHIN A] (H-Y[dM]FHLMD-NH2), the Ki in experiment [1] turned out to be 0.12 nM; at Mu-type opioid receptor [2], 336 nM.

`CC(C)[C@H](NC(=O)[C@H](CC(=O)O)NC(=O)[C@H](Cc1ccccc1)NC(=O)[C@@H](C)NC(=O)[C@@H](N)Cc1ccc(O)cc1)C(=O)N[C@H](C(=O)NCC(N)=O)C(C)C` [DELTORPHIN C]: the results for the Ki (on Mu-type opioid receptor [3]; in experiment [4]) were 387 nM and 0.21 nM, respectively.

For the compound `CC(C)[C@H](NC(=O)[C@H](CCC(=O)O)NC(=O)[C@H](Cc1ccccc1)NC(=O)[C@H](C)NC(=O)[C@@H](N)Cc1ccc(O)cc1)C(=O)N[C@H](C(=O)NCC(=O)O)C(C)C` [DELTORPHINE II], the Ki in experiment [4] came to 0.31 nM.

The compound `CC(C)[C@H](NC(=O)[C@H](CCC(=O)O)NC(=O)[C@H](Cc1ccccc1)NC(=O)[C@@H](C)NC(=O)[C@@H](N)Cc1ccc(O)cc1)C(=O)N[C@H](C(=O)NCC(=O)O)C(C)C` [DELTORPHIN] returned a Ki in experiment [4] of 7.97 nM.

`C[C@@H](NC(=O)[C@@H](N)Cc1ccc(O)cc1)C(=O)N[C@@H](Cc1ccccc1)C(=O)NCC(=O)N[C@@H](Cc1ccc(O)cc1)C(=O)N1CCC[C@H]1C(=O)N[C@@H](CO)C(N)=O` [DERMORPHIN] had a Ki at Mu-type opioid receptor [2] of 0.7 nM.
